Source: US10758534B2 (Vertex Pharmaceuticals Incorporated, priority 2014, dated 2020)
Read-outs that look alike come from different tables or passages of the source.

Molecular target: T1, F508del (Homo sapiens, UniProt P13569, DEL508-508)
T1 construct: expressed in transfected cells
Experiment: Protocol 2: FRET membrane potential optical assay (VIPR), identification of correction compounds
Format: cell-based
Method in brief: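 Correction of the F508del trafficking defect is scored as forskolin (10 μM)/genistein (20 μM)-stimulated Cl^− efflux in NIH3T3 mouse fibroblasts after a 16 hr, 37° C. compound exposure. Depolarization was followed optically using voltage-sensing FRET dyes.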

[1] = F508del CFTR modulator activity, compounds of Table 1, read-out: EC30
[2] = Table 3, compounds of Table 1 as modulators of CFTR activity, protocol not stated

T1 sequence (P13569 with tags, fused parts or gaps DEL508-508): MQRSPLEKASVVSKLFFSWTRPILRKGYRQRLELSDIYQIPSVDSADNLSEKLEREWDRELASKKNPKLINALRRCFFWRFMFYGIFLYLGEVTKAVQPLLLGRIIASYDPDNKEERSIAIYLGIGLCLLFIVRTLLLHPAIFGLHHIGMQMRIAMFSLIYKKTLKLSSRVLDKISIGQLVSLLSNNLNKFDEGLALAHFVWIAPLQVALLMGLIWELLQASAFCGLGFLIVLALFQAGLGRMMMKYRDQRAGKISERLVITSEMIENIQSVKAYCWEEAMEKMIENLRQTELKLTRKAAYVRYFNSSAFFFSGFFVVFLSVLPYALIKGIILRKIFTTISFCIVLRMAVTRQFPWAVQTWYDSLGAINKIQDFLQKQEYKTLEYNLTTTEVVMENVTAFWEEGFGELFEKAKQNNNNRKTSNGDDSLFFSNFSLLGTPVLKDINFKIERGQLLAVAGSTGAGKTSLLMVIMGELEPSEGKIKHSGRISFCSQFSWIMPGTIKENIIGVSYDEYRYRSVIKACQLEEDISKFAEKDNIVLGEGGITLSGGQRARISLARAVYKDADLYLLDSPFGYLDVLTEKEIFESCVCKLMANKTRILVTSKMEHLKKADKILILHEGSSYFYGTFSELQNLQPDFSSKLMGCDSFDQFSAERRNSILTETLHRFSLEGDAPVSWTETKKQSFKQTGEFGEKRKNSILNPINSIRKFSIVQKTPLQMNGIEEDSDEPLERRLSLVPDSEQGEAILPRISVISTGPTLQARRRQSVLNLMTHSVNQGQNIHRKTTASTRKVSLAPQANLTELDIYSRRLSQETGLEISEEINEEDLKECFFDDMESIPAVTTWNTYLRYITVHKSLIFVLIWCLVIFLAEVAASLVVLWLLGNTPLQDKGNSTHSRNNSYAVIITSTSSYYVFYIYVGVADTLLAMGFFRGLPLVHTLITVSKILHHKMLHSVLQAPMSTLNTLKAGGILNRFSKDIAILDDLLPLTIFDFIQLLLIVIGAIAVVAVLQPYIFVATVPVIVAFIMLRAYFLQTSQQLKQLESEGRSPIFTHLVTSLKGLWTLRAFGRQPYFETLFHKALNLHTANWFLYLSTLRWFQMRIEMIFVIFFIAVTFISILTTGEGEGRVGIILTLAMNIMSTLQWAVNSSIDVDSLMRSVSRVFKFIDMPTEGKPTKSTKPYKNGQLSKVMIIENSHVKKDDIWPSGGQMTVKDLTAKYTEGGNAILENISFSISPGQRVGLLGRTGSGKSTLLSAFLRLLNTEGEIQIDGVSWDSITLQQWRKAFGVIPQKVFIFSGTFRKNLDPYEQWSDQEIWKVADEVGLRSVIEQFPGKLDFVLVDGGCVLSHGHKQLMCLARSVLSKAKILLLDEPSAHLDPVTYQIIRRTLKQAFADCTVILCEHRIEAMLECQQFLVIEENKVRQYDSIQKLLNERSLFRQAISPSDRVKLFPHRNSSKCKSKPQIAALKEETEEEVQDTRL

Row | SMILES | EC30 [1] | EC30 [2]
1 | CC(C)COc1cc(F)cc(-c2ccc(C(=O)NS(=O)(=O)c3cccc(N)n3)c(N3CCCC3(C)C)n2)c1 [Compound 361, N-[(6-amino-2-pyridyl)sulfonyl]-2-(2,2-dimethylpyrrolidin-1-yl)-6-(3-fluoro-5-isobutoxy-phenyl)pyridine-3-carboxamide] |  | +++ (“+++” means <3 uM)
2 | Cc1cc(C)c(CN2C[C@@H](c3ccccc3)C[C@H]2C(=O)NS(=O)(=O)c2cccc(N)n2)c(C)c1 [Compound 236, (2S,4R)—N-[(6-Amino-2-pyridyl)sulfonyl]-4-phenyl-1-[(2,4,6-trimethylphenyl)methyl]pyrrolidine-2-carboxamide] |  | ++ (“++” means between 3 uM and 10 uM)
3 | CC(C)COc1cc(F)cc(-c2ccc(C(=O)NS(=O)(=O)N3CC(C)(O)C3)c(N3C[C@@H](C)CC3(C)C)n2)c1 [Compound 2398, 6-(3-fluoro-5-isobutoxy-phenyl)-N-(3-hydroxy-3-methyl-azetidin-1-yl)sulfonyl-2-[(4S)-2,2,4-trimethylpyrrolidin-1-yl]pyridine-3-carboxamide] | < 3 µM | 
4 | Cc1ccc(S(=O)(=O)NC(=O)c2cc(C(C)(C)C)nn2Cc2c(C)cccc2C)cc1N [Compound 312, N-(3-amino-4-methyl-phenyl)sulfonyl-5-tert-butyl-2-[(2,6-dimethylphenyl)methyl]pyrazole-3-carboxamide] |  | +++ (“+++” means <3 uM)
5 | Cc1cc(C)c(CN2Cc3ccccc3C2C(=O)NS(=O)(=O)c2cccc(N)c2)c(C)c1 (stereo not shown) [Compound 90, N-(3-aminophenyl)sulfonyl-2-[(2,4,6-trimethylphenyl)methyl]isoindoline-1-carboxamide] |  | +++ (“+++” means <3 uM)
6 | COc1ccc(C)c(-c2ccc(C(=O)NS(=O)(=O)c3cccc(N)n3)c(N3CC(C)CC3(C)C)n2)c1 (stereo not shown) [Compound 470, N-[(6-amino-2-pyridyl)sulfonyl]-6-(5-methoxy-2-methyl-phenyl)-2-(2,2,4-trimethylpyrrolidin-1-yl)pyridine-3-carboxamide] |  | +++ (“+++” means <3 uM)
7 | CCOc1ccc(C(=O)NS(=O)(=O)c2cccc(N)n2)c(Oc2c(C)cc(C)cc2C)n1 [Compound 637, N-[(6-amino-2-pyridyl)sulfonyl]-6-ethoxy-2-(2,4,6-trimethylphenoxy)pyridine-3-carboxamide] |  | ++ (“++” means between 3 uM and 10 uM)
8 | CC(C)COc1ccc(F)c(-c2ccc(C(=O)NS(=O)(=O)c3ccc[nH]c3=O)c(N3[C@H](C)CC[C@@H]3C)n2)c1 [Compound 721, 2-[(2S,5R)-2,5-dimethylpyrrolidin-1-yl]-6-(2-fluoro-5-isobutoxy-phenyl)-N-[(2-oxo-1H-pyridin-3-yl)sulfonyl]pyridine-3-carboxamide] |  | ++ (“++” means between 3 uM and 10 uM)
9 | CC(C)COc1ccccc1-c1ccc(C(=O)NS(=O)(=O)c2cccnc2N)c(N2C[C@@H](C)CC2(C)C)n1 [Compound 2448, N-[(2-amino-3-pyridyl)sulfonyl]-6-(2-isobutoxyphenyl)-2-[(4S)-2,2,4-trimethylpyrrolidin-1-yl]pyridine-3-carboxamide] | < 3 µM | 
10 | Cc1cc(C)c(Oc2nc(C(C)(C)C)ccc2C(=O)NS(=O)(=O)c2cccc3c2ccn3C)c(C)c1 [Compound 146, 6-tert-butyl-N-(1-methylindol-4-yl)sulfonyl-2-(2,4,6-trimethylphenoxy)pyridine-3-carboxamide] |  | +++ (“+++” means <3 uM)
11 | COc1cccc(-c2ccc(C(=O)NS(=O)(=O)c3cccc(N)n3)c(Oc3c(C)cc(C)cc3C)n2)c1 [Compound 413, N-[(6-amino-2-pyridyl)sulfonyl]-6-(3-methoxyphenyl)-2-(2,4,6-trimethylphenoxy)pyridine-3-carboxamide] |  | +++ (“+++” means <3 uM)
12 | CC1CCN(c2nc(-c3ccc(OC(C)C)nc3)ccc2C(=O)NS(=O)(=O)c2ccn[nH]2)CC1 [Compound 534, 6-(6-isopropoxy-3-pyridyl)-2-(4-methyl-1-piperidyl)-N-(1H-pyrazol-5-ylsulfonyl)pyridine-3-carboxamide] |  | ++ (“++” means between 3 uM and 10 uM)
13 | CC(C)COc1ccc(-c2ccc(C(=O)NS(=O)(=O)c3ccc[nH]c3=O)c(N3C[C@@H](C)CC3(C)C)n2)cc1 [Compound 2153, 6-(4-isobutoxyphenyl)-N-[(2-oxo-1H-pyridin-3-yl)sulfonyl]-2-[(4S)-2,2,4-trimethylpyrrolidin-1-yl]pyridine-3-carboxamide] | < 3 µM | 
14 | COc1cccc2c1cc(C(=O)NS(=O)(=O)c1cccc(N)c1)n2Cc1c(C)cccc1C [Compound 168, N-(3-aminophenyl)sulfonyl-1-[(2,6-dimethylphenyl)methyl]-4-methoxy-indole-2-carboxamide] |  | +++ (“+++” means <3 uM)
15 | COc1cc(-c2cc(C(=O)NS(=O)(=O)c3ccccc3)n(Cc3c(C)cccc3C)n2)ccc1Cl [Compound 37, N-(benzenesulfonyl)-5-(4-chloro-3-methoxy-phenyl)-2-[(2,6-dimethylphenyl)methyl]pyrazole-3-carboxamide] |  | +++ (“+++” means <3 uM)
16 | CCOc1ccc(-c2ccc(C(=O)NS(=O)(=O)c3cc[nH]n3)c(Oc3c(C)cc(C)cc3C)n2)cc1 [Compound 190, 6-(4-ethoxyphenyl)-N-(1H-pyrazol-3-ylsulfonyl)-2-(2,4,6-trimethylphenoxy)pyridine-3-carboxamide] |  | +++ (“+++” means <3 uM)

Continued, values first:

Row | EC30 [1] | EC30 [2] | SMILES
17 | < 3 µM |  | CC1CN(c2nc(OC(C)C)c(F)cc2C(=O)NS(=O)(=O)c2cccc(N)n2)C(C)(C)C1 (stereo not shown) [Compound 2230, N-[(6-amino-2-pyridyl)sulfonyl]-5-fluoro-6-isopropoxy-2-(2,2,4-trimethylpyrrolidin-1-yl)pyridine-3-carboxamide]
18 |  | ++ (“++” means between 3 uM and 10 uM) | CC1(CNc2nc(C(C)(C)C)ccc2C(=O)NS(=O)(=O)c2ccc(N)cc2)CCOCC1 [Compound 752, N-(4-aminophenyl)sulfonyl-6-tert-butyl-2-[(4-methyltetrahydropyran-4-yl)methylamino]pyridine-3-carboxamide]
19 | < 3 µM |  | CC1CN(c2ncccc2C(=O)NS(=O)(=O)c2cccc(OCC3CCC3)n2)C(C)(C)C1 (stereo not shown) [Compound 2188, N—[[6-(cyclobutylmethoxy)-2-pyridyl]sulfonyl]-2-(2,2,4-trimethylpyrrolidin-1-yl)pyridine-3-carboxamide]
20 | < 3 µM |  | Cc1ccc(F)cc1-c1ccc(C(=O)NS(=O)(=O)c2cccc(N)n2)c(N2C[C@@H](C)CC2(C)C)n1 [Compound 2394, N-[(6-amino-2-pyridyl)sulfonyl]-6-(5-fluoro-2-methyl-phenyl)-2-[(4S)-2,2,4-trimethylpyrrolidin-1-yl]pyridine-3-carboxamide]
21 | < 3 µM |  | Cc1cc(-c2ccc(C(=O)NS(=O)(=O)c3ccc[nH]c3=O)c(N3C[C@@H](C)CC3(C)C)n2)ccc1F [Compound 2456, 6-(4-fluoro-3-methyl-phenyl)-N-[(2-oxo-1H-pyridin-3-yl)sulfonyl]-2-[(4S)-2,2,4-trimethylpyrrolidin-1-yl]pyridine-3-carboxamide]
22 | < 3 µM |  | CC1CN(c2ncc(-c3ccc(C(F)(F)F)cc3)cc2C(=O)NS(=O)(=O)c2cccc(N)n2)C(C)(C)C1 (stereo not shown) [Compound 2337, N-[(6-amino-2-pyridyl)sulfonyl]-5-[4-(trifluoromethyl)phenyl]-2-(2,2,4-trimethylpyrrolidin-1-yl)pyridine-3-carboxamide]
23 | < 3 µM |  | CC1CN(c2ncccc2C(=O)NS(=O)(=O)c2cccc(Nc3ccc(F)c(F)c3)n2)C(C)(C)C1 (stereo not shown) [Compound 2341, N—[[6-(3,4-difluoroanilino)-2-pyridyl]sulfonyl]-2-(2,2,4-trimethylpyrrolidin-1-yl)pyridine-3-carboxamide]
24 | < 3 µM |  | COc1ccc(OC)c(CNc2cccc(S(=O)(=O)NC(=O)c3cccnc3N3CC(C)CC3(C)C)n2)c1 (stereo not shown) [Compound 2722]
25 | < 3 µM |  | CC1CN(c2ncccc2C(=O)NS(=O)(=O)c2cccc(OCc3ccc4ccccc4c3)n2)C(C)(C)C1 (stereo not shown) [Compound 2151, N—[[6-(2-naphthylmethoxy)-2-pyridyl]sulfonyl]-2-(2,2,4-trimethylpyrrolidin-1-yl)pyridine-3-carboxamide]
26 | < 3 µM |  | COc1cc(C)c(-c2ccc(C(=O)NS(=O)(=O)c3cccnc3N)c(N3C[C@@H](C)CC3(C)C)n2)c(C)c1 [Compound 2607, N-[(2-amino-3-pyridyl)sulfonyl]-6-(4-methoxy-2,6-dimethyl-phenyl)-2-[(4S)-2,2,4-trimethylpyrrolidin-1-yl]pyridine-3-carboxamide]
27 | < 3 µM |  | C[C@@H]1CN(c2nc(-c3ccccc3OC(F)(F)F)ccc2C(=O)NS(=O)(=O)N2CC[C@H](N)C2)C(C)(C)C1 [Compound 2070, N-[(3S)-3-aminopyrrolidin-1-yl]sulfonyl-6-[2-(trifluoromethoxy)phenyl]-2-[(4S)-2,2,4-trimethylpyrrolidin-1-yl]pyridine-3-carboxamide]
28 | < 3 µM |  | CC1CN(c2ncccc2C(=O)NS(=O)(=O)c2cccc(Oc3ccc(Cl)cc3)n2)C(C)(C)C1 (stereo not shown) [Compound 2145, N—[[6-(4-chlorophenoxy)-2-pyridyl]sulfonyl]-2-(2,2,4-trimethylpyrrolidin-1-yl)pyridine-3-carboxamide]
29 | < 3 µM |  | CCCOc1ccc(C)cc1-c1ccc(C(=O)NS(=O)(=O)c2cccc(N)n2)c(N2C[C@@H](C)CC2(C)C)n1 [Compound 2085, N-[(6-amino-2-pyridyl)sulfonyl]-6-(5-methyl-2-propoxy-phenyl)-2-[(4S)-2,2,4-trimethylpyrrolidin-1-yl]pyridine-3-carboxamide]
30 |  | +++ (“+++” means <3 uM) | COc1cccc(S(=O)(=O)NC(=O)c2ccc(-c3cc(F)cc(OCC(C)C)c3)nc2N2CC(C)CC2(C)C)n1 (stereo not shown) [Compound 795]
31 | < 3 µM |  | CC1CN(c2ncccc2C(=O)NS(=O)(=O)c2cccc(OCCC3CCOCC3)n2)C(C)(C)C1 (stereo not shown) [Compound 2329, N—[[6-(2-tetrahydropyran-4-ylethoxy)-2-pyridyl]sulfonyl]-2-(2,2,4-trimethylpyrrolidin-1-yl)pyridine-3-carboxamide]
